For series [1], the target named is T1, VEEV nsP2 protease (Venezuelan equine encephalitis virus, UniProt P27282). As to the kind of experiment: biochemical. To be noted: for kinact/KI: pH 7, read-out: k2/Ki.
The next series has as its target CHIKV nsP2 protease (Chikungunya virus, UniProt Q8JUX6). Type of series: biochemical.
Another series has as its target WEEV nsP2 protease (Western equine encephalitis virus, UniProt P13896). Type of series: biochemical.
The subject of another series is A549. The conditions noted are these: African green monkey.
For series [2] the following is noted: rat.
The next series deals with VEEV. Type of series: cell-based, Venezuelan equine encephalitis virus.
Another series relates to EEEV. Type of series: cell-based, eastern equine encephalitis virus.
Another series concerns WEEV. Type of series: cell-based, Western equine encephalitis virus.
Another series concerns CHIKV. Type of series: cell-based, Chikungunya virus.
In a further series the test system is VEEV Trinidad. Type of series: cell-based, Venezuelan equine encephalitis virus.
In a further series the test system is VEEV-Trinidad. The series is described as follows: microbe, parasite or virus in culture. Type of series: cell-based. To be noted: Venezuelan equine encephalitis virus, A549.
The nature of series [3]: in vitro. The conditions noted are these: African green monkey.
Series [4] can be described thus: in vitro. The conditions noted are these: SD, rat, microsomes.
Series [5] in a line: in vitro. The conditions noted are these: PAMPA. On the technique in general: PAMPA measures passive passage across an artificial lipid membrane.
The target of series [6] is T1, VEEV nsP2 protease. Type of series: biochemical.
A further series deals with VEEV-Trd. The series is described as follows: microbe, parasite or virus in culture. Type of series: cell-based, Venezuelan equine encephalitis virus.

In general, Ki refers to a measure of affinity in units of concentration, obtained from inhibition or displacement. As usually defined, the EC50 is the concentration at which the effect is half-maximal. By half-life is commonly meant the time in which the quantity being followed falls by half. By Papp is commonly meant a coefficient for how fast a substance crosses the barrier. As usually defined, the solubility is how much of the substance goes into solution per volume.

Structures are written as SMILES. ≈ marks a conversion by molar mass, not a printed value. Where “and” joins values, the source holds several entries; their conditions need not be identical. Equal values may be shown once. Read-outs that look alike come from different tables or passages of the source.

T1 sequence (P27282 1003-1322 limits assumed): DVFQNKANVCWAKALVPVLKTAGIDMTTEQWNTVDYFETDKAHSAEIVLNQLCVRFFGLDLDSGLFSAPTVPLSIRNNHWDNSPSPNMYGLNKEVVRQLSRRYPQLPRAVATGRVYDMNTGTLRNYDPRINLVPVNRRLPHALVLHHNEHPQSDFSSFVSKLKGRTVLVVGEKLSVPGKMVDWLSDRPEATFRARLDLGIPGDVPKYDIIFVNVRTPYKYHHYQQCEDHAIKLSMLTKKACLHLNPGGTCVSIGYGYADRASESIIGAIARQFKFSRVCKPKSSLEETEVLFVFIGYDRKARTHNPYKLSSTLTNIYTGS
Sequence of WEEV nsP2 protease (P13896 1001-1320 limits assumed): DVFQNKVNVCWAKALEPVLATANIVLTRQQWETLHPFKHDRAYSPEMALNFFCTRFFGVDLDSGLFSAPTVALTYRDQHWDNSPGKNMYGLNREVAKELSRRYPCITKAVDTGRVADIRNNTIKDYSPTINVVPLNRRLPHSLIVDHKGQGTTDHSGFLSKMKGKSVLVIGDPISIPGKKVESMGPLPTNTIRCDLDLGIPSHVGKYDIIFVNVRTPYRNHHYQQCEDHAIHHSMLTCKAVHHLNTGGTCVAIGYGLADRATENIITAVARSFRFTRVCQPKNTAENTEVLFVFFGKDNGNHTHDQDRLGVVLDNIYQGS
Sequence of CHIKV nsP2 protease (Q8JUX6 1004-1327 limits assumed): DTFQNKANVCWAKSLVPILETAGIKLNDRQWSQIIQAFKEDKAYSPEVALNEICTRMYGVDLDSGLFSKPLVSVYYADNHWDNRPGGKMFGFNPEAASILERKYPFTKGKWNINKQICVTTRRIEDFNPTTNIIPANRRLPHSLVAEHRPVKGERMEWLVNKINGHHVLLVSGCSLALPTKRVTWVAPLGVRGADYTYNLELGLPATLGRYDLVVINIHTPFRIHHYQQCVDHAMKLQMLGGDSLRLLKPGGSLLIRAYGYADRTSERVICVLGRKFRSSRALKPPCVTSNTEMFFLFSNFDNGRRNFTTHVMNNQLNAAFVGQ

Take `CCCNC(=O)[C@H]1O[C@@H]1C(=O)N[C@H](C(=O)N1CCC[C@H]1C(=O)O)[C@@H](C)CC` [CA074]: the PAMPA is under 1 ×10⁻⁶ cm/s. On VEEV nsP2 protease [1], the “enhancement of inhibitor binding by Mg^2+ and Mn^2+” value lay in the range of 3 to 6 fold; the Ki was 1200 µM and 410 µM and 210 µM and 2000 µM; the kinact/KI was 3.33 M⁻¹ s⁻¹. The compound further showed a k2/Ki at VEEV nsP2 protease [1] (50 mm hepes, pH 7) of 3.3 ± 3.3 M⁻¹ s⁻¹. Besides, the “inhibition of CHIKV nsP2 protease” value on CHIKV nsP2 protease is “inhibited”. The “inhibition of WEEV nsP2 protease” value at WEEV nsP2 protease is “inhibited”. Besides, in the series with A549, the CC50 was over 100 µM. Besides, in [2] (SD), the “Microsomal Stability t1/2” value is over 30 min and the “Rat_SD/Microsomes t1/2” value was over 30 m. In addition, the “Permeability (PAMPA_Pion_Lipid)” value (PAMPA) was under 1 ×10⁻⁶ cm/s.

On to `CCCNC(=O)[C@H]1O[C@@H]1C(=O)N[C@H](C(=O)N1CCC[C@H]1C(=O)OC)[C@@H](C)CC` [CA074me, CA074 methyl ester], for which the PAMPA stood at 33 ×10⁻⁶ cm/s. Moreover, in the series with VEEV, the “efficacy in plaque assays” value is “effective”, the “reduction in plaque-forming units (PFU)” value is given as about 6 log and the viral titer reduction was over 5 logs. In addition, in the series on EEEV, the Average titer is 3.12 × 10^4 and 3.20 × 10^6 and 3.18 × 10^7 and 4.57 × 10^7; the “reduction in PFU” value is recorded as 2 log. In addition, the “reduction in PFU” value in the series with WEEV is given as 2 log. For the same compound, the “reduction in PFU” value with CHIKV was 2 log. In addition, in the series on VEEV Trinidad, the “reduction in plaque forming units (PFU)” value is ~ 5 log. Affinity at VEEV nsP2 protease [1] was put at a Ki of 1200 ± 500 µM. Besides, a half-maximal response in the series on VEEV-Trinidad (EC50) required 11 µM. In series [2] (microsomes), the “Rat_SD/Microsomes t1/2” value was 11.1 m. The compound also showed a CC50 in the series “in vitro [3]” of over 100 µM. Further, in the series “in vitro [4]”, the half-life stood at 11.1 min. Further, the Papp in “in vitro [5]” amounted to 33 ×10⁻⁶ cm/s. Moreover, in the series “physchem”, the solubility was determined as 22 µg/mL (≈ 55.3 µM).

On to `CC(C)CCNC(=O)C(CC(C)C)NC(=O)C1OC1C(=O)O` (stereo not drawn) [E64c, reference compound], for which the “inhibition in discontinuous assays (SDS-PAGE gels)” value at VEEV nsP2 protease [6] is listed as “partial inhibition”. The EC50 in the series with VEEV-Trinidad is over 100 µM. In addition, in the series on VEEV-Trd, the “efficacy in cell-based assays” value is “ineffective”. In [2] (microsomes), the “Rat_SD/Microsomes t1/2” value was over 30 m. Moreover, the CC50 in the series “in vitro [3]” is over 100 µM. The Papp in the series “in vitro [5]” is under 1 ×10⁻⁶ cm/s. The compound further returned a solubility in the series “physchem” of 33 µg/mL (≈ 105 µM).

As for `CCOC(=O)[C@H]1O[C@@H]1C(=O)N[C@@H](CC(C)C)C(=O)NCCC(C)C` [E64d], the “effect on titers” value in the series on VEEV is “minor reductions”; with EEEV it was “no effect”; with WEEV it was “no effect”; in the series on CHIKV, “minor reductions”. Besides, the Average titer in the series on EEEV is 2.28 × 10^8 and 2.27 × 10^8; in the series on WEEV, 2.13 × 10^6 and 2.16 × 10^6. At VEEV nsP2 protease [1], the Ki amounted to 40 ± 30 µM. Besides, at VEEV nsP2 protease [1] (pH 7), the k2 worked out at 0.10 ± 0.06 min⁻¹. Besides, the kinact/KI at VEEV nsP2 protease [1] is 33.3 M⁻¹ s⁻¹. Further, the “inhibition in discontinuous assays (SDS-PAGE gels)” value against VEEV nsP2 protease [6] is on record as “complete inhibition”. Also, in the series with VEEV-Trd, the “efficacy in cell-based assays” value is “ineffective”. The “Rat_SD/Microsomes t1/2” value in series [2] (microsomes) is reported as 1.5 m. The same compound came in with a Papp in the series “in vitro [5]” of 89 ×10⁻⁶ cm/s. In the series “physchem”, this compound showed a solubility of 24 µg/mL (≈ 70.1 µM).
